Assay results as given in patent publication US12239648B2, “KIF5B-RET fusion molecules and uses thereof” (Foundation Medicine, Inc., priority 2011, dated 2025).

Key:
KIF5B-RET Ba/F3 cells = assay: Effects of drugs on Ba/F3 cells transfected with KIF5B-RET fusion constructs (IL-3 independent growth); type: cell-based; conditions: Ba/F3 cells expressing KIF5B-RET, FIG. 8
Source text: FIG. 8 is a graph showing the effects of different drugs on Ba/F3 cells transfected with KIF5B-RET fusion constructs.

[1] = tested on: Thyroid cancers and cell lines harboring PTC-RET translocations; conditions: PTC/RET translocations overexpressing the RET kinase domain; Henderson 2008, Carlomagno 2006; cited from earlier work

Compound: CNC(=O)c1cc(Oc2ccc(NC(=O)Nc3ccc(Cl)c(C(F)(F)F)c3)cc2)ccn1 [sorafenib]
- sensitivity of KIF5B-RET transformed Ba/F3 cells to drug (KIF5B-RET Ba/F3 cells): sensitive
- sensitivity of thyroid cancer and cell lines harboring PTC/RET translocations [1]: sensitive
